These results are taken from ChEMBL document CHEMBL4004798, “Phytochemical Investigations of Three Rhodocodon (Hyacinthaceae Sensu APG II) Species” (2017).

The inhibition is the change of the read-out against control, counted positive when it falls.

A short description of assay [1]: Inhibition of COX2 expression in HCA-7 cells at 12 uM after 48 hrs by Western blot method relative to control. In kind it is functional. The settings on record: Homo sapiens, HCA-7, 48 h.
Assay [2] concerns the target T1, Prostaglandin G/H synthase 2 (Homo sapiens) (UniProt P35354).
T1 sequence (whole entry): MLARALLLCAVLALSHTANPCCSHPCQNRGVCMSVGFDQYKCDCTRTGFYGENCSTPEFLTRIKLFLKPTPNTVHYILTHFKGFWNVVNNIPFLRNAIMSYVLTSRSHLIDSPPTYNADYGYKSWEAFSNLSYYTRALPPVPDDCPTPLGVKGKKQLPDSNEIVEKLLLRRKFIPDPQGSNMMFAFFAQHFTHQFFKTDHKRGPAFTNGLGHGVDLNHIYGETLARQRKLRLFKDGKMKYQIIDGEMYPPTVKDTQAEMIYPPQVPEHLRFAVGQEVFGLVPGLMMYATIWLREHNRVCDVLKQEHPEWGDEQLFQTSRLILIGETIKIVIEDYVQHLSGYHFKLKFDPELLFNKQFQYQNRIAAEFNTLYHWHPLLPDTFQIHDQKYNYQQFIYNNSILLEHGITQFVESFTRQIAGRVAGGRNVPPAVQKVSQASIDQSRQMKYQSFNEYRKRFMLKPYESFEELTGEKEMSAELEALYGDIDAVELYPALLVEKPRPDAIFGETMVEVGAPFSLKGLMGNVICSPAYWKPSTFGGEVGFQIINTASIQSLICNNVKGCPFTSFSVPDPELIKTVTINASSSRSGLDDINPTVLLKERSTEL
Nature of the assay: Inhibition of COX2 in HCA-7 cells assessed as reduction in PGE2 release at 12 uM after 48 hrs by ELISA relative to control. In kind it is cell-based.

Assay [3] is described as follows: Inhibition of COX2 expression in HCA-7 cells at 1 mM after 48 hrs by Western blot method relative to control. The settings on record: Homo sapiens, HCA-7, 48 h. In kind it is functional. (In general: A western blot detects proteins with antibodies after separation by electrophoresis.)

`COc1ccc(/C=C2\COc3cc(O)c(O)c(O)c3C2=O)cc1O` returned an inhibition at 12 µM in assay [1] of 10%. Besides, in assay [2], the inhibition came to 20%. Turning to `CC(=O)Oc1ccccc1C(=O)O` [ASPIRIN], the inhibition at 1000 µM in assay [3] came to 12%.

For the compound `COc1ccc(/C=C2\COc3cc(O)cc(O)c3C2=O)cc1OC(C)=O`, 12 µM produced 8% inhibition in assay [1]. Moreover, the inhibition in assay [2] came out at 11%.
